Values of other authors in patent US20060121016A1, “Methods and compositions for treatment of free radical injury” (priority 2004, published 2006).

Settings: administered both before and after the operation

Oc1ncnc2[nH]ncc12 [allopurinol]
Reduction of incidence of complication following surgery: 70%
